Where two headings read alike, the source gives them in different places.
Columns and labels:
[1] = Acute toxicity (LD50), 24 hour values; settings: mouse, in vivo, mice, 24 hour value
Protocol: The low toxicity of the compounds of formula I is also illustrated by the acute toxicity (LD50) of the compounds set out in Table I. The figures set forth in Table I as to acute toxicity refer to toxicity tests performed in mice and are the 24 hour values.

rats = test: Anti-depressant activity: antagonism of symptoms induced by 2-ethyl-2-hydroxy-3-isobutyl-9,10-dimethoxy-1,3,4,6,7,11b-hexahydro-2H-benzo (a) quinolizine hydrochloride (motility, sensitivity to stimulus, seeking behavior, suppression of ptosis); format: in vivo; settings: 3 doses of 50 mg/kg p.o., benzoquinolizine 20 mg/kg s.c. 6 h after last dose, amitriptyline = 100 percent
Protocol: The compounds of formula I above and their pharmaceutically acceptable salts are extremely effective and active as anti-depressant agents. Their useful anti-depressant activity is shown in warm-blooded animals utilizing standard test procedures. […] Six hours after the last administration the animals received 20 mg/kg of 2-ethyl-2-hydroxy-3-isobutyl-9,10-dimethoxy-1,3,4,6,7,11b-hexahydro-2H-benzo (a) quinolizine hydrochloride injected subcutaneously. The same dosage was administered to a group of 5-non-pretreated rats. The evaluation includes central and peripheral symptoms such as are characteristic for anti-depressants (See Annals of the New York Academy of Science, Vol. 96, page 279, 1962). Especially observed were the motility (climbing), sensitivity to stimulus, seeking behavior as well as the suppression of ptosis. These changes were expressed in numbers according to an evaluation scheme.
The percentage numbers stated relate to the value obtained with amitriptyline (amitriptyline = 100 percent).

| Structure (SMILES) | LD50 at 24 h ([1]; iv, i.v., read-out: LD50 i.v.) [mg/kg] | LD50 at 24 h ([1]; po, p.o., read-out: LD50 p.o.) [mg/kg] | LD50 at 24 h ([1]; sc, s.c., read-out: LD50 s.c.) [mg/kg] | Activity in % of the activity of amitriptyline (rats) |
| --- | --- | --- | --- | --- |
| CN1Cc2cc(O)ccc2C(c2ccc(Cl)cc2)C1 (stereo not drawn) [4-(4-chlorophenyl)-1,2,3,4-tetrahydro-2-methyl-7-isoquinolinol] | 30 to 60 | 1000 to 2000 | 500 to 1000 | about 114% |
| COc1ccc2c(c1)CN(C)CC2c1ccc(Cl)c(Cl)c1 (stereo not drawn) [4-(3,4-dichlorophenyl)-1,2,3,4-tetrahydro-7-methoxy-2-methylisoquinoline] | 125 to 250 | 1000 to 2000 | 500 to 1000 | about 128% |
| CN1Cc2cc(O)ccc2C(c2ccc(Cl)c(Cl)c2)C1 (stereo not drawn) [4-(3,4-dichlorophenyl)-1,2,3,4-tetrahydro-2-methyl-7-isoquinolinol] | 30 to 60 | 500 to 1000 | 250 to 500 | about 158% |

— patent US3947456A, “Substituted 4-phenyl isoquinolines” (Hoffman-La Roche Inc., priority 1970, dated 1976)
